{"source": "paper PMC7878667", "about": "“The Kinase Specificity of Protein Kinase Inhibitor Peptide” (Frontiers in Pharmacology, 2021)", "origin": "cited, not measured here", "key": {"[1]": {"tested_on": "PKC", "conditions": "ref Day et al., 1989; Smith et al., 1990", "source_text": "In principle, this could be due to PKI interfering with 1) the protease reaction, 2) the fluorescence detection, or 3) the FRET response. […] Second, the forms of PKC used are different: we used purified human recombinant PKC isoforms expressed in insect ce ..."}, "[2]": {"tested_on": "PDK1", "conditions": "ref Murray, 2008", "source_text": "(§1) Despite the additional targets of PKI identified in our study, PKI seems more specific than the other commonly used PKA inhibitors, H89 and KT 5720 ([Murray, 2008]). This may be due to their different mechanisms of action. […] The off-target effects of these reagents have partial overlap ([Murray, 2008])."}, "[3]": {"tested_on": "PKA catalytic subunit", "conditions": "ref Murray, 2008", "source_text": "as §1"}, "[4]": {"tested_on": "PKBα", "conditions": "ref Murray, 2008", "source_text": "as §1"}, "[5]": {"tested_on": "ROCK2", "conditions": "ref Murray, 2008", "source_text": "as §1"}}, "data": [{"compound": "IAAGRTGRRQAIHDILVAA [PKI-tide]", "values": [{"measurement": "influence on PKC", "setting": "[1]", "result": "did not find significant influence"}]}, {"compound": "CCCCCCOC(=O)[C@]1(O)C[C@@H]2O[C@@]1(C)n1c3ccccc3c3c4c(c5c6ccccc6n2c5c31)C(=O)NC4", "note": "[KT 5720]", "values": [{"measurement": "effect on PDK1 activity", "setting": "[2]", "result": "inhibited"}, {"measurement": "mechanism of PKA inhibition", "setting": "[3]", "result": "competitively inhibits ATP binding on the PKA catalytic subunit"}, {"measurement": "effect on PKBα", "setting": "[4]", "result": "inhibited"}]}, {"compound": "O=S(=O)(NCCNC/C=C/c1ccc(Br)cc1)c1cccc2cnccc12", "note": "[H89]", "values": [{"measurement": "mechanism of PKA inhibition", "setting": "[3]", "result": "competitively inhibits ATP binding on the PKA catalytic subunit"}, {"measurement": "effect on PKBα", "setting": "[4]", "result": "inhibited"}, {"measurement": "effect on ROCK2", "setting": "[5]", "result": "inhibits ROCK2 potently"}]}]}
